From US12428422B2, “Purine derivatives as SIK-3 inhibitors” (RHIZEN PHARMACEUTICALS AG, priority 2020, dated 2025)

What was measured:
y isoform of PI3K = y isoform of PI3K (Homo sapiens, UniProt P48736); experiment: Activity against PI3K gamma isoform (printed "y" / "7"); conditions: independently synthesized compound
THP-1 cell lines = experiment: MTT cell growth inhibition, single agent or combination, THP-1; type: cell-based; conditions: combined with azacytidine or ventoclax, 72 hrs
Description: (§1) Assay 4: Compound M1 as a Single Agent or in Combination with Azacytidine, or Venetoclax was Determined in the AML Lines: THP-1, U937, and MV-4-11.
(§2) Day 0 • The cells were pelleted and counted. • Cells were plated at desired density (100 μl/well) in complete media in a 96-well plate in triplicates. A column for Day “0” reading was also seeded (18-20 hrs after initial plating and before addition of the inhibitors) • Plates were incubated at 37° C. and 5% CO2. Day 1 • 10 μl of MTT (5 mg/ml) were added to the column designated for Day “0”. It was mixed well and incubated at 37° C. and 5% CO2 for 3.5 h. Cells were pelleted down at 4000 rpm for 10 minutes. • Media was aspirated out and 150 μl of DMSO were added to the cells and mixed by pipetting to dissolve the crystals • Plate was read at A560 nm and A640 nm. […] Crystals were dissolved by repeated pipetting. • The plate was read at A560 nm and A640 nm. […]
(§3) Reference absorbance values were subtracted from test absorbance values. Day 0 values were subtracted from final day absorbance values for determining cell growth. Percent cell growth inhibitions were calculated.

U937 cell lines = experiment: MTT cell growth inhibition, single agent or combination, U937; type: cell-based; conditions: combined with azacytidine or ventoclax, 72 hrs
Description: as §1, §2, §3

HuT-78 cell lines = experiment: MTT cell growth inhibition, combination with romidepsin, HuT-78; type: cell-based; conditions: combined with romedepsin, 72 hrs
Description: Assay 5: Combination of Compound M1 with Standard Agents in HuT-78 Cell Lines
Day 0 • The HuT-78 cells were pelleted and counted. • Cells were plated at desired density (100 μl/well) in complete media in a 96-well plate in triplicates. A column for Day “0” reading was also seeded. (18-20 hrs after initial plating and before addition of the inhibitors) • Plates were incubated at 37° C. and 5% CO2. Day 1 • 10 μl of MTT (5 mg/ml) were added to the column designated for Day “0”. It was mixed well and incubated at 37° C. and 5% CO2 for 3.5 hours. Cells were pelleted down at 4000 rpm for 10 minutes. • Media was aspirated out and 150 μl of DMSO were added to the cells and mixed by pipetting to dissolve the crystals • The plate was read at A560 nm and A640 nm. Day 2 • A series of dilutions of the inhibitors were initially made in 100% DMSO and further diluted in growth medium. • Cells were treated with either single agent of DMSO, compound M1, romidepsin, or a combination of compound M1 and romidepsin (HuT-78). […] Crystals were dissolved by repeated pipetting. • The plate was read at A560 nm and A640 nm. […]
(§4) Reference absorbance values were subtracted from test absorbance values. Day 0 values were subtracted from final day absorbance values for determining cell growth. % Cell growth inhibitions were calculated.

MCF-7 cell lines = experiment: MTT cell growth inhibition, combination with taxol, MCF-7; type: cell-based; conditions: combined with taxol, 72 hrs
Description: Assay 6: Combination of Compound M1 with Standard Agents in Different Cell Lines
Day 0 • The cells were pelleted and counted. • Cells were plated at desired density (100 μl/well) in complete media in a 96-well plate in triplicates. A column for Day “0” reading was also seeded. (18-20 hrs after initial plating and before addition of the inhibitors) • Plates were incubated at 37° C. and 5% CO2. Day 1 • 10 μl of MTT (5 mg/ml) were added to the column designated for Day “0”. It was mixed well and incubated at 37° C. and 5% CO2 for 3.5 h. Cells were pelleted down at 4000 rpm for 10 minutes. • Media was aspirated out and 150 μl of DMSO were added to the cells and mixed by pipetting to dissolve the crystals • The plate was read at A560 nm and A640 nm. Day 2 • A series of dilutions of the inhibitors were initially made in 100% DMSO and further diluted in growth medium. • Cells were treated with either single agent of DMSO, compound M1, taxol, and a combination of compound M1 and taxol (MDA-MB-231, MCF-7, ZR.75.1 and SK-OV-3). […] Crystals were dissolved by repeated pipetting. • The plate was read at A560 nm and A640 nm. […]
as §4

Chain of y isoform of PI3K (P48736 whole entry, canonical isoform): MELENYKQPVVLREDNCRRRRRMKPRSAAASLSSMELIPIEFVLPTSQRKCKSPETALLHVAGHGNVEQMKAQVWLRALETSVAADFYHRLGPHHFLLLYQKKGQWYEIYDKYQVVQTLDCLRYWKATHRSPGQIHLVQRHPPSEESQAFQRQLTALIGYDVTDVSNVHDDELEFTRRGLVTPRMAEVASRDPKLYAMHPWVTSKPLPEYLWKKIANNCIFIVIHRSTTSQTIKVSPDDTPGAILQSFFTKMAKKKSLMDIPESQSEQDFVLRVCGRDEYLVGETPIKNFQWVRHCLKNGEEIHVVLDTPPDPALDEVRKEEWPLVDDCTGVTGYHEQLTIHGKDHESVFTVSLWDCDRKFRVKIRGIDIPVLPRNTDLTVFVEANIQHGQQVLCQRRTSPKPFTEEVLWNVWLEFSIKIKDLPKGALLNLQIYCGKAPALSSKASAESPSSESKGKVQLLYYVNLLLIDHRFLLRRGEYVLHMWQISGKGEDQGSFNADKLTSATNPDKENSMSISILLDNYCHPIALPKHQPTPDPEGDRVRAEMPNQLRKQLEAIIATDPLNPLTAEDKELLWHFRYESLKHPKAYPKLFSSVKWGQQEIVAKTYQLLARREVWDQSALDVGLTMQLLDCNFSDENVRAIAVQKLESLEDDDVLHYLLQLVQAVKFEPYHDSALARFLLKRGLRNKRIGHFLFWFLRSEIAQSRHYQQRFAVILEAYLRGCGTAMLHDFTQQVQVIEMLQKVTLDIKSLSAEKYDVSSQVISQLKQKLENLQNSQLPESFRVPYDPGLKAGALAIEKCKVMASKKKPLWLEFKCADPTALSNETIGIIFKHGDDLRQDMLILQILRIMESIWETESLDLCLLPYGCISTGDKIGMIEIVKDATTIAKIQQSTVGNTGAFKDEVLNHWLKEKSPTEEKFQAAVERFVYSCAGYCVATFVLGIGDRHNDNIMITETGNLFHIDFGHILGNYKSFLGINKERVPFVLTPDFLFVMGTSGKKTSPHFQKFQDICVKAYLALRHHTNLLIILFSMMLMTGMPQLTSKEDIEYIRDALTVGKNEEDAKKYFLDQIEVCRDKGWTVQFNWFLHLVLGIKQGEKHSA

- activity against the y isoform of PI3K (y isoform of PI3K): inactive
SMILES: CC[C@H](Nc1ncnc2[nH]c(O)nc12)c1oc2ccccc2c(=O)c1-c1cccc(F)c1 [Compound M1, (S)-3-(3-fluorophenyl)-2-(1-((8-hydroxy-9H-purin-6-yl)amino)propyl)-4H-chromen-4-one]
- cell growth inhibition in combination (THP-1 cell lines): synergistic activity
- cell growth inhibition in combination (U937 cell lines): synergistic activity
- cell growth inhibition in combination (HuT-78 cell lines): synergistic results
- cell growth inhibition in combination (MCF-7 cell lines): synergistic results
